Test results taken from patent US20140005181A1, “SMALL MOLECULE ANTAGONISTS OF THE APELIN RECEPTOR FOR THE TREATMENT OF DISEASE” (Sanford-Burnham Medical Research Institute, priority 2012, published 2014).
Where “and” joins values, the source holds several entries; their conditions need not be identical. Equal entries are not always repeated. Where two headings read alike, the source gives them in different places.

What was measured:
APJ = molecular target: T1, APJ (Homo sapiens, UniProt P35414); experiment: APJ receptor internalization assay; assay type: cell-based; details: fixed apelin-13 6.23 nM
T1 sequence (P35414 1-380): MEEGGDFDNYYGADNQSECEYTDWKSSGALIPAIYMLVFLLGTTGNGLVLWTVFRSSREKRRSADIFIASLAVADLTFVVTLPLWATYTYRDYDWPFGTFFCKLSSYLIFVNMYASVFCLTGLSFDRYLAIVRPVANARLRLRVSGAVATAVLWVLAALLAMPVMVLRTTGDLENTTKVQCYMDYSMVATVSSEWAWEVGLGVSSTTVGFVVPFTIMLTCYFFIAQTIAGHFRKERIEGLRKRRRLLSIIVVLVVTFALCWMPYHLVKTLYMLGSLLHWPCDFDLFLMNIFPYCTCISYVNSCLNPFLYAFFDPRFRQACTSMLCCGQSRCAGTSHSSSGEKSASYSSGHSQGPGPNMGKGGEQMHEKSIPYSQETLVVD
Experimental: This graph depicts the mean percent inhibition (±SEM) of apelin-13 mediated receptor internalization. Representative of an experiment that was repeated three times with each data point performed in triplicate. Curve fit analysis was performed using nonlinear regression with a 4-point logistic fit (GraphPad Prism5).

PAMPA permeability = assay type: in vitro ADME; details: for Papp: PAMPA, read-out: PAMPA Pe
Experimental: The PAMPA (Parallel Artificial Membrane Permeability Assay) assay is used as an in vitro model of passive, transcellular permeability. An artificial membrane immobilized on a filter is placed between a donor and acceptor compartment. At the start of the test, drug is introduced in the donor compartment. Following the permeation period, the concentration of drug in the donor and acceptor compartments is measured using UV spectroscopy.

Plasma stability, human = assay type: in vitro ADME; details: Plasma:1x PBS pH 7.4 1:1, 3 hrs
[1] = Stability in 1x PBS pH 7.4 (plasma stability assay); assay type: physicochemical; details: 1x PBS pH 7.4, 3 hrs
kappa opioid receptor = molecular target: T2, kappa opioid receptor (Homo sapiens, UniProt P41145); experiment: PDSP GPCR binding assay panel
T2 construct: Psychoactive Drug Screening Program (PDSP), University of North Carolina
T2 sequence (P41145 whole entry): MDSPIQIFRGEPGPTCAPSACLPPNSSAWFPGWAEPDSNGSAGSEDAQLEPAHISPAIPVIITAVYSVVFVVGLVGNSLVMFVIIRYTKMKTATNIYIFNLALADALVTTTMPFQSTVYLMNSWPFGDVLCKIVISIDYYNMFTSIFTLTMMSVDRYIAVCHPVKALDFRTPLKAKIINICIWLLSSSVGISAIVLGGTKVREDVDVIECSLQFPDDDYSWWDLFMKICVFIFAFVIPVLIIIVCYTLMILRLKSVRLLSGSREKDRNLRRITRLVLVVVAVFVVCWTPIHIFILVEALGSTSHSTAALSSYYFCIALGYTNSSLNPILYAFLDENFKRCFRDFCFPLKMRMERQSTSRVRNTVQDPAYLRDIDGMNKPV

[2] = tested on: benzodiazepinone receptors; experiment: PDSP GPCR binding assay panel
[3] = Hepatic toxicity / cytotoxicity; details: human, hepatocytes
human hepatocytes = experiment: Hepatic toxicity / cytotoxicity; details: Table 1
[4] = Hepatic microsome stability, human
[5] = Hepatic microsome stability, mouse

## O=C(Oc1coc(CSc2ncccn2)cc1=O)c1ccc([N+](=O)[O-])cc1 [Compound 6, 4-OXO-6-((PYRIMIDIN-2-YLTHIO)METHYL)-4H-PYRAN-3-YL-4-NITROBENZOATE]
APJ
  antagonism of apelin-13 induced APJ receptor internalization: antagonized the ability of apelin-13 to induce APJ receptor internalization
PAMPA permeability; Donor pH 7.4, Acceptor pH 7.4
  PAMPA Pe (×10^−6 cm/s): 271 ×10^−6 cm/s
PAMPA permeability; Donor pH 5.0, Acceptor pH 7.4
  Papp: 1950 nm/s
PAMPA permeability; Donor pH 6.2, Acceptor pH 7.4
  Papp: 2400 nm/s
PAMPA permeability; Table 1, pH 7.4
  Permeability (PAMPA) pH 7.4: 271.0 × 10^−6 cm/s
Plasma stability, human
  Plasma Stability (% Remaining @3 hrs): 0.26%
[1]; first value (Human position)
  Plasma Stability (% Remaining @3 hrs), 1x PBS pH 7.4: 46.97%
[1]; second value (Mouse position)
  Plasma Stability (% Remaining @3 hrs), 1x PBS pH 7.4: 42.18%
Kappa opioid receptor
  binding activity at kappa opioid receptor: significant activity
[2]
  binding activity at benzodiazepinone receptors: significant activity
Aqueous solubility; 1x PBS, pH 7.4, aqueous buffer
  solubility: 3.6 µg/mL and 9.3 µM
Aqueous solubility; Table 1, pH 7.4
  Aqueous Solubility pH 7.4: 25.5 μg/mL
Aqueous solubility; aqueous media, pH 5, aqueous buffer
  solubility: 3 µg/mL and 7.8 µM
Aqueous solubility; aqueous media, pH 6.2, aqueous buffer
  solubility: 3.6 µg/mL and 9.3 µM
Aqueous solubility; aqueous media, pH 7.4, aqueous buffer
  solubility: 9.8 µg/mL and 25 µM
Plasma protein binding; mouse
  Plasma Protein Binding (mouse): 99.1%
Plasma protein binding; species not given, 18 h incubation
  detection in the plasma protein binding assay: undetectable
Plasma stability, mouse; Mouse, Plasma:1x PBS pH 7.4 1:1, 3 hrs
  Plasma Stability (% Remaining @3 hrs): 0.88%
Plasma stability, mouse; Table 1, species and matrix not given
  Plasma Stability: 42.2%
[3]
  CC50: > 50 µM
Human hepatocytes
  Cytotoxicity: >50 µM
[4]; Human
  Hepatic Microsome Stability Human: 4.19
[4]; human, 60 min
  % remaining at 60 min in human liver homogenates: 4.2%
[5]; Table 1, species not given, equals the mouse value
  Hepatic Microsome Stability: 4.9%
[5]; mouse
  Hepatic Microsome Stability Mouse: 4.89
[5]; mouse, 60 min
  % remaining at 60 min in mouse liver homogenates: 4.9%
